Reference: patent US10576062B2, “Carbamoyloxymethyl triazole cyclohexyl acids as LPA antagonists” (Bristol-Myers Squibb Company, priority 2016, dated 2020)

These compounds were tested against T1, human LPA1 (Homo sapiens, UniProt Q92633) (assay: LPA1 functional antagonist assay (LPA-induced calcium flux)). Conditions: CHO cells overexpressing human LPA1; inhibition of calcium flux induced by 10 nM LPA; read-out: hLPA1 IC50.
T1 construct: expressed in transfected cells; host or cells: Chinese hamster ovary (CHO) cells
T1 sequence (Q92633 whole entry): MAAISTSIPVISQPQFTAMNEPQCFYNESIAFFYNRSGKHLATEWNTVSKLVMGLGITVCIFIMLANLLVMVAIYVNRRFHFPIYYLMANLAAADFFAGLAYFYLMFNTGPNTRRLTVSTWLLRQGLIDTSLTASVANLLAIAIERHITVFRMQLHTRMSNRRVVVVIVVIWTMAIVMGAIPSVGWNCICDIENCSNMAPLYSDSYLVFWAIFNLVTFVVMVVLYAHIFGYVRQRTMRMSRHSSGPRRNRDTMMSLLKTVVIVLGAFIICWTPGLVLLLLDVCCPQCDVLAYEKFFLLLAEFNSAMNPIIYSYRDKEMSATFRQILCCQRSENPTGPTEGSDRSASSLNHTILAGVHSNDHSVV
Type: cell-based
Procedure: The effectiveness of compounds of the present invention as LPA1 inhibitors can be determined in an LPA1 functional antagonist assay as follows: Chinese hamster ovary cells overexpressing human LPA1 were plated overnight (15,000 cells/well) in poly-D-lysine coated 384-well microplates (Greiner bio-one, Cat #781946) in DMEM/F12 medium (Gibco, Cat #11039). Following overnight culture, cells were loaded with calcium indicator dye (AAT Bioquest Inc, Cat #34601) for 30 minutes at 37° C. The cells were then equilibrated to room temperature for 30 minutes before the assay. Test compounds solubilized in DMSO were transferred to 384 well non-binding surface plates (Corning, Cat #3575) using the Labcyte Echo acoustic dispense and diluted with assay buffer [1×HBSS with calcium/magnesium (Gibco Cat #14025-092), 20 mM HEPES (Gibco Cat #15630-080) and 0.1% fatty acid free BSA (Sigma Cat #A9205)] to a final concentration of 0.5% DMSO. Diluted compounds were added to the cells by FDSS6000 (Hamamatsu) at final concentrations ranging from 0.08 nM to 5 μM. and were then incubated for 20 min at room temperature at which time LPA (Avanti Polar Lipids Cat #857130C) was added at final concentrations of 10 nM to stimulate the cells. […] IC50 values were determined by fitting data to a 4-parameter logistic equation (GraphPad Prism, San Diego Calif.).

Q: `[2H]C([2H])([2H])N(CCC)C(=O)OCc1c(-c2ccc(O[C@H]3CCC[C@H](C(=O)O)C3)c(C)n2)nnn1C` [Example 288, (1S,3S)-3-((2-methyl-6-(1-methyl-5-((((methyl-d3)(propyl)carbamoyl)oxy)methyl)-1H-1,2,3-triazol-4-yl)pyridin-3-yl)oxy)cyclohexane-1-carboxylic acid] was tested. Which IC50 did it give?
A: The IC50 was 29 nM.

Q: `C[C@H]1C[C@@H]1CN(C)C(=O)OCc1c(-c2ccc(O[C@H]3CCC[C@H](C(=O)O)C3)cn2)nnn1C` [Example 252, (1S,3S)-3-((6-(1-methyl-5-(((methyl(((1S,2S)-2-methylcyclopropyl)methyl)carbamoyl)oxy)methyl)-1H-1,2,3-triazol-4-yl)pyridin-3-yl)oxy)cyclohexane-1-carboxylic acid] was tested. Which IC50 did it give?
A: The IC50 was 29 nM.

Q: Which IC50 does the source give for `Cc1nc(-c2nnn(C)c2COC(=O)N(C)CC(C)F)ccc1O[C@H]1CCC[C@H](C(=O)O)C1` (stereo partly drawn) [Example 261, (1S,3S)-3-((6-(5-((((2-fluoropropyl)(methyl)carbamoyl)oxy)methyl)-1-methyl-1H-1,2,3-triazol-4-yl)-2-methylpyridin-3-yl)oxy)cyclohexane-1-carboxylic acid] here?
A: Its IC50 is 145 nM.

Q: How did the IC50 turn out when `CN(CC1CCC1)C(=O)OCc1c(-c2ccc(O[C@H]3CCC[C@H](C(=O)O)C3)c(CO)n2)nnn1C` [Example 265, (1S,3 S)-3-((6-(5-((((cyclobutylmethyl)(methyl)carbamoyl)oxy)methyl)-1-methyl-1H-1,2,3-triazol-4-yl)-2-(hydroxymethyl)pyridin-3-yl)oxy)cyclohexane-1-carboxylic Acid] was run?
A: The IC50 was 68 nM.

Q: Which IC50 does the source give for `CCCN(C)C(=O)OCCc1c(-c2ccc(O[C@H]3CCC[C@H](C(=O)O)C3)c(C)n2)nnn1C` [Example 242, (1S,3S)-3-((2-Methyl-6-(1-methyl-5-(2-((methyl(propyl)carbamoyl)oxy)-ethyl)-1H-1,2,3-triazol-4-yl)pyridin-3-yl)oxy)cyclohexane-1-carboxylic acid] here?
A: The IC50 was 319 nM.

Q: With `CN(CC1CC1)C(=O)OCc1c(-c2ccc(O[C@H]3CCC[C@H](C(=O)O)C3)c(C(F)(F)F)n2)nnn1C` [Example 273, (1S,3S)-3-((6-(5-((((cyclopropylmethyl)(methyl)carbamoyl)oxy)methyl)-1-methyl-1H-1,2,3-triazol-4-yl)-2-(trifluoromethyl)pyridin-3-yl)oxy)cyclohexane-1-carboxylic acid] as the compound, how does the IC50 read?
A: The IC50 was 7 nM.

Q: Which IC50 does the source give for `CCc1nc(-c2nnn(C)c2COC(=O)N(C)CC(C)C)ccc1O[C@H]1CCC[C@H](C(=O)O)C1` [Example 197, (1S,3S)-3-((2-ethyl-6-(5-(((isobutyl(methyl)carbamoyl)oxy)methyl)-1-methyl-1H-1,2,3-triazol-4-yl)pyridin-3-yl)oxy)cyclohexane-1-carboxylic acid] here?
A: Its IC50 is 27 nM.

Q: `CCCC1(N(C)C(=O)OCc2c(-c3ccc(O[C@H]4CCC[C@H](C(=O)O)C4)c(CC)n3)nnn2C)CC1` [Example 207, (1S,3S)-3-((2-ethyl-6-(1-methyl-5-(((methyl(1-propylcyclopropyl)carbamoyl)oxy)methyl)-1H-1,2,3-triazol-4-yl)pyridin-3-yl)oxy)cyclohexane-1-carboxylic acid] was tested. Which IC50 did it give?
A: The IC50 was 133 nM.

Q: Which IC50 does the source give for `CCCCN(C)C(=O)OCc1c(-c2ccc(O[C@H]3CCC[C@H](C(=O)O)C3)c(C(F)(F)F)n2)nnn1C` [Example 275, (1S,3S)-3-((6-(5-(((butyl(methyl)carbamoyl)oxy)methyl)-1-methyl-1H-1,2,3-triazol-4-yl)-2-(trifluoromethyl)pyridin-3-yl)oxy)cyclohexane-1-carboxylic acid] here?
A: Its IC50 is 5.6 nM.

Q: How did the IC50 turn out when `CCCCN(C)C(=O)OCc1c(-c2ccc(O[C@H]3CCC[C@H](C(=O)O)C3)c(C#N)n2)nnn1C` [Example 291, (1S,3S)-3-((6-(5-(((butyl(methyl)carbamoyl)oxy)methyl)-1-methyl-1H-1,2,3-triazol-4-yl)-2-cyanopyridin-3-yl)oxy)cyclohexane-1-carboxylic acid] was run?
A: Its IC50 is 15 nM.

Same assay, conditions: human LPA1; read-out: hLPA1 IC50

Q: For `CN(CCC(C)(C)F)C(=O)OCc1c(-c2ccc(O[C@H]3CCC[C@H](C(=O)O)C3)cn2)nnn1C` [Example 188, (1S,3S)-3-((6-(5-((((3-fluoro-3-methylbutyl)(methyl)carbamoyl)oxy)methyl)-1-methyl-1H-1,2,3-triazol-4-yl)pyridin-3-yl)oxy)cyclohexane-1-carboxylic acid], which IC50 is on record?
A: The IC50 was 32 nM.

Q: How did the IC50 turn out when `CC(C)=CCN(C)C(=O)OCc1c(-c2ccc(O[C@H]3CCC[C@H](C(=O)O)C3)c(C)n2)nnn1C` [Example 177, (1S,3S)-3-((2-methyl-6-(1-methyl-5-(((methyl(3-methylbut-2-en-1-yl)carbamoyl)oxy)methyl)-1H-1,2,3-triazol-4-yl)pyridin-3-yl)oxy)cyclohexane-1-carboxylic acid] was run?
A: The IC50 was 21 nM.

Same assay, conditions: read-out: hLPA1 IC50

Q: `CC(C1CCC1)N(C)C(=O)OCc1c(-c2ccc(O[C@H]3CCC[C@H](C(=O)O)C3)cc2)nnn1C` (single isomer, unassigned) [Example 49] was tested. Which IC50 did it give?
A: Its IC50 is 14 nM.

Q: With `CCCCN(C)C(=O)OCc1c(-c2ccc(O[C@H]3CCC[C@H](C(=O)O)C3)c(F)c2)nnn1C` [Example 46, (1S,3S)-3-(4-(5-(((butyl(methyl)carbamoyl)oxy)methyl)-1-methyl-1H-1,2,3-triazol-4-yl)-2-fluorophenoxy)cyclohexane-1-carboxylic acid] as the compound, how does the IC50 read?
A: The IC50 was 6 nM.

Q: How did the IC50 turn out when `Cc1cc(-c2nnn(C)c2COC(=O)N(C)[C@H](C)C2CC2)ccc1O[C@H]1CCC[C@H](C(=O)O)C1` [Example 36, (1S,3S)-3-(4-(5-(((((R)-1-cyclopropylethyl)(methyl)carbamoyl)oxy)methyl)-1-methyl-1H-1,2,3-triazol-4-yl)-2-methylphenoxy)cyclohexane-1-carboxylic acid] was run?
A: The IC50 was 6 nM.

Q: How did the IC50 turn out when `CN(CC1CC1)C(=O)OCc1c(-c2ccc(O[C@H]3CCC[C@H](C(=O)O)C3)cc2)nnn1C` (racemic) [Example 61, (rac)-trans-3-(4-(5-((((cyclopropylmethyl)(methyl)carbamoyl)oxy)methyl)-1-methyl-1H-1,2,3-triazol-4-yl)phenoxy)cyclohexane-1-carboxylic acid] was run?
A: The IC50 was 273 nM.

Q: With `Cc1nc(-c2nnn(C)c2COC(=O)N(C)C2(c3ccccc3)CC2)ccc1O[C@H]1CCC[C@H](C(=O)O)C1` [Example 100, (1S,3S)-3-((2-methyl-6-(1-methyl-5-(((methyl(1-phenylcyclopropyl)carbamoyl)oxy)methyl)-1H-1,2,3-triazol-4-yl)pyridin-3-yl)oxy)cyclohexane-1-carboxylic acid] as the compound, how does the IC50 read?
A: Its IC50 is 70 nM.

Q: `Cc1nc(-c2nnn(C)c2COC(=O)N(C)C2CC23CCC3)ccc1O[C@H]1CCC[C@@H](C(=O)O)C1` (stereo partly drawn) [Example 146, (1R,3S)-3-((2-methyl-6-(1-methyl-5-(((methyl(spiro[2.3]hexan-1-yl)carbamoyl)oxy)methyl)-1H-1,2,3-triazol-4-yl)pyridin-3-yl)oxy)cyclohexane-1-carboxylic acid] was tested. Which IC50 did it give?
A: The IC50 was 1820 nM.

Q: With `Cc1nc(-c2nnn(C)c2COC(=O)N(C)C(C)C)ccc1O[C@H]1CCC[C@H](C(=O)O)C1` [Example 138] as the compound, how does the IC50 read?
A: The IC50 was 98 nM.

Q: With `Cc1nc(-c2nnn(C)c2COC(=O)N(C)Cc2ncccn2)ccc1O[C@H]1CCC[C@H](C(=O)O)C1` [Example 121, (1S,3S)-3-((2-methyl-6-(1-methyl-5-(((methyl(pyrimidin-2-ylmethyl)carbamoyl)oxy)methyl)-1H-1,2,3-triazol-4-yl)pyridin-3-yl)oxy)cyclohexane-1-carboxylic acid] as the compound, how does the IC50 read?
A: Its IC50 is 1090 nM.

Q: `CCCN(C)C(=O)OCc1c(-c2ccc(O[C@H]3CCC[C@H](C(=O)O)C3)c(C)n2)nnn1C` [Example 104, (1S,3S)-3-((2-methyl-6-(1-methyl-5-(((methyl(propyl)carbamoyl)oxy)methyl)-1H-1,2,3-triazol-4-yl)pyridin-3-yl)oxy)cyclohexane-1-carboxylic acid] was tested. Which IC50 did it give?
A: Its IC50 is 19 nM.

Q: For `Cc1nc(-c2nnn(C)c2COC(=O)N(C)CC2CCOC2)ccc1O[C@H]1CCC[C@H](C(=O)O)C1` (stereo partly drawn) [Example 126, (1S,3S)-3-((2-methyl-6-(1-methyl-5-(((methyl((tetrahydrofuran-3-yl)methyl)carbamoyl)oxy)methyl)-1H-1,2,3-triazol-4-yl)pyridin-3-yl)oxy)cyclohexane-1-carboxylic acid], which IC50 is on record?
A: The IC50 was 346 nM.

Q: How did the IC50 turn out when `Cc1nc(-c2nnn(C)c2COC(=O)N(C)CCc2ccccc2)ccc1O[C@H]1CCC[C@H](C(=O)O)C1` [Example 103, (1S,3S)-3-((2-methyl-6-(1-methyl-5-(((methyl(phenethyl)carbamoyl)oxy)methyl)-1H-1,2,3-triazol-4-yl)pyridin-3-yl)oxy)cyclohexane-1-carboxylic acid] was run?
A: Its IC50 is 119 nM.

Q: For `CN(CC1CCC1)C(=O)OCc1c(-c2ccc(O[C@H]3CCC[C@H](C(=O)O)C3)c(F)c2)nnn1C` [Example 27, (1S,3S)-3-(4-(5-((((cyclobutylmethyl)(methyl)carbamoyl)oxy)methyl)-1-methyl-1H-1,2,3-triazol-4-yl)-2-fluorophenoxy)cyclohexane-1-carboxylic acid], which IC50 is on record?
A: Its IC50 is 14 nM.

Q: With `CCC(CC)N(C)C(=O)OCc1c(-c2ccc(O[C@H]3CCC[C@H](C(=O)O)C3)cc2)nnn1C` [Example 76, (1S,3S)-3-(4-(1-methyl-5-(((methyl(pentan-3-yl)carbamoyl)oxy)methyl)-1H-1,2,3-triazol-4-yl)phenoxy)cyclohexane-1-carboxylic acid] as the compound, how does the IC50 read?
A: Its IC50 is 47 nM.
